Here are results for seven molecules from patent EP0118750A2, “Regeneration of NAD(P) cofactor” (PHILLIPS PETROLEUM COMPANY, priority 1983, dated 1984).

T1 sequence (P00327 2-375 limits assumed): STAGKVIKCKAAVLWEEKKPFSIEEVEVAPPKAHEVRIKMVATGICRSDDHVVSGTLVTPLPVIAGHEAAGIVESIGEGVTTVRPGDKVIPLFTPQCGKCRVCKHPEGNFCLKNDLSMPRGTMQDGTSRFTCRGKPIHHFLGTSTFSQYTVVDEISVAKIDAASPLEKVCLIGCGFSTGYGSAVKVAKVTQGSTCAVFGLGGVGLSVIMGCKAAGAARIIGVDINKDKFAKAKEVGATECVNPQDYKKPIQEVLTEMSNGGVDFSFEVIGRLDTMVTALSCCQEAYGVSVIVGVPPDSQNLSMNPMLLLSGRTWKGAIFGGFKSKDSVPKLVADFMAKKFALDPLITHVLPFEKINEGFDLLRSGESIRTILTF

This test has as its target T1, horse liver alcohol dehydrogenase (Equus caballus, UniProt P00327).
T1 construct: 0.5 mL horse liver-alcohol dehydrogenase solution (Sigma-1 mg/mL); purchased Sigma; host or cells: horse liver
The test can be described thus: Dissolved oxygen decrease on adding alcohol substrates to the cofactor regeneration system (NAD, HL-ADH, acetaldehyde, alcohol oxidase). The format is biochemical. The note with it: relative decrease in dissolved oxygen level upon addition of 0.1 mL of 2.5 vol % solution of the alcohol; phosphate buffer pH 8. Here is the method:
The following reagents were admixed in a small beaker: • 2.7 mL aerated potassium phosphate buffer (0.05 M; pH 8) • 0.01 mL of NAD solution (10 mg/mL or 0.025 M) • 0.5 mL horse liver-alcohol dehydrogenase solution (Sigma-1 mg/mL) • 0.1 mL of 1 M acetaldehyde • 0.1 mL of saturated alcohol oxidase (~ 10 mg/mL, prepared as described in example I)
A dissolved oxygen probe, connected to an electronic signal differentiator, was placed in the above prepared solution. The relative decrease in dissolved oxygen level (ADO) was monitored upon addition of 0.1 mL of 2.5 vol % solutions of several alcohols: […]
For the molecule `OCCCCO` [1,4-butanediol], the ΔDO entry is listed as “Yes”. Consider `CCC(C)O` (stereo not shown) [2-butanol], for which the ΔDO entry was “Yes”. Consider `OC=CCCO` [3-buten-1,4-diol], for which the ΔDO entry was “Yes”. On to `C=CC(C)O` (stereo not shown) [3-buten-2-ol], for which the ΔDO entry is “Yes”.

Turning to `C=CCCCCCCCCO` [9-decen-1-ol], the ΔDO entry is “Yes”. The same measure for `OC1CCCCC1` [cyclohexanol]: “Yes”. For the molecule `CC(C)(C)O` [tertiary butanol], the ΔDO result is “No”.
